Data reported in paper PMC12250965, “Design and Synthesis of Sulfonium and Selenonium Derivatives Bearing 3′,5′-O-Benzylidene Acetal Side Chain Structure as Potent α-Glucosidase Inhibitors” (Molecules, 2025).
Read-outs that look alike come from different tables or passages of the source.

How the values were obtained:
[1] = biological target: rat intestinal maltase; test: In vitro α-glucosidase inhibition assay, rat intestinal maltase; assay type: biochemical; conditions: rat small intestinal brush border membrane vesicles; maltose substrate; mean ± SD (n = 3); read-out: IC50 against maltase
[2] = biological target: T1, rat intestinal sucrase (Rattus norvegicus, UniProt P23739); test: In vitro α-glucosidase inhibition assay, rat intestinal sucrase; assay type: biochemical; conditions: rat small intestinal brush border membrane vesicles; sucrose substrate; mean ± SD (n = 3); read-out: IC50 against sucrase
T1 construct: rat small intestinal brush border membrane vesicles were first prepared; from tissue; host or cells: rat small intestine, brush border membrane vesicles

[3] = tested on: sucrose-loaded mice; test: Sucrose loading test (hypoglycemic effect); assay type: in vivo, ICR mice; conditions: sucrose loading […] p.o.
Experimental: Research has shown a strong association between the 2 h postprandial blood glucose level and the risk of cardiovascular events, diabetic microvascular complications such as retinopathy, and the progression of macrovascular diseases. […] Considering this underlying pathological process, α-glucosidase inhibitors, which efficiently regulate postprandial glucose fluctuations, hold significant therapeutic promise for alleviating diabetes-related complications. […] Subsequently, doses were reduced to 1.0 mg/kg.
(§1) The animal experimental protocols in this study were approved by the Experimental Animal Center of Shanghai Institute of Materia Medica (Shanghai, China). Male ICR (Institute of Cancer Research) mice (29−33 g) after an overnight fast were used for acute maltose and sucrose loading tests. In the maltose loading test, maltose (2.0 mpk of body weight) and the inhibitors and voglibose were dissolved in distillation−distillation water and administered to the mice via a stomach tube. A control group was loaded with distillation−distillation water. In the sucrose loading test, sucrose (2.5 g/kg of body weight) and the inhibitor miglitol were dissolved in distillation−distillation water and administered to the mice via a stomach tube. A control group was loaded with distillation−distillation water. Blood samples for glucose measurements were obtained from the tail vein at 0, 15, 30, 60, and 120 min after maltose and sucrose loading. The blood glucose levels were measured by a portable kit, StatStrip Xpress (Nova Biomedical Co., Ltd., Waltham, MA, USA). The AUC over was calculated by the trapezoidal method.

[4] = tested on: maltose-loaded mice; test: Maltose loading test (hypoglycemic effect); assay type: in vivo, ICR mice; conditions: maltose loading 2.0 g/kg, 1.0 mpk, 1 mg/kg
Experimental: A maltose loading test on compounds 10, 20c, neoponkoranol, and positive control (voglibose) was conducted to further evaluate their in vivo hypoglycemic effects against maltase.
as §1, with “In the maltose loading test, maltose (2.0 mpk of body weight) and the inhibitors and voglibose were dissolved in distillation−distillation water and administered to the mice via a stomach tube.” left out

[5] = biological target: rat intestinal maltase; conditions: literature value ^[a]; read-out: IC50 against maltase (converted); cited from earlier work
[6] = biological target: T1, rat intestinal sucrase; conditions: literature value ^[a]; read-out: IC50 against sucrase (converted); cited from earlier work

T1 sequence (P23739 whole entry): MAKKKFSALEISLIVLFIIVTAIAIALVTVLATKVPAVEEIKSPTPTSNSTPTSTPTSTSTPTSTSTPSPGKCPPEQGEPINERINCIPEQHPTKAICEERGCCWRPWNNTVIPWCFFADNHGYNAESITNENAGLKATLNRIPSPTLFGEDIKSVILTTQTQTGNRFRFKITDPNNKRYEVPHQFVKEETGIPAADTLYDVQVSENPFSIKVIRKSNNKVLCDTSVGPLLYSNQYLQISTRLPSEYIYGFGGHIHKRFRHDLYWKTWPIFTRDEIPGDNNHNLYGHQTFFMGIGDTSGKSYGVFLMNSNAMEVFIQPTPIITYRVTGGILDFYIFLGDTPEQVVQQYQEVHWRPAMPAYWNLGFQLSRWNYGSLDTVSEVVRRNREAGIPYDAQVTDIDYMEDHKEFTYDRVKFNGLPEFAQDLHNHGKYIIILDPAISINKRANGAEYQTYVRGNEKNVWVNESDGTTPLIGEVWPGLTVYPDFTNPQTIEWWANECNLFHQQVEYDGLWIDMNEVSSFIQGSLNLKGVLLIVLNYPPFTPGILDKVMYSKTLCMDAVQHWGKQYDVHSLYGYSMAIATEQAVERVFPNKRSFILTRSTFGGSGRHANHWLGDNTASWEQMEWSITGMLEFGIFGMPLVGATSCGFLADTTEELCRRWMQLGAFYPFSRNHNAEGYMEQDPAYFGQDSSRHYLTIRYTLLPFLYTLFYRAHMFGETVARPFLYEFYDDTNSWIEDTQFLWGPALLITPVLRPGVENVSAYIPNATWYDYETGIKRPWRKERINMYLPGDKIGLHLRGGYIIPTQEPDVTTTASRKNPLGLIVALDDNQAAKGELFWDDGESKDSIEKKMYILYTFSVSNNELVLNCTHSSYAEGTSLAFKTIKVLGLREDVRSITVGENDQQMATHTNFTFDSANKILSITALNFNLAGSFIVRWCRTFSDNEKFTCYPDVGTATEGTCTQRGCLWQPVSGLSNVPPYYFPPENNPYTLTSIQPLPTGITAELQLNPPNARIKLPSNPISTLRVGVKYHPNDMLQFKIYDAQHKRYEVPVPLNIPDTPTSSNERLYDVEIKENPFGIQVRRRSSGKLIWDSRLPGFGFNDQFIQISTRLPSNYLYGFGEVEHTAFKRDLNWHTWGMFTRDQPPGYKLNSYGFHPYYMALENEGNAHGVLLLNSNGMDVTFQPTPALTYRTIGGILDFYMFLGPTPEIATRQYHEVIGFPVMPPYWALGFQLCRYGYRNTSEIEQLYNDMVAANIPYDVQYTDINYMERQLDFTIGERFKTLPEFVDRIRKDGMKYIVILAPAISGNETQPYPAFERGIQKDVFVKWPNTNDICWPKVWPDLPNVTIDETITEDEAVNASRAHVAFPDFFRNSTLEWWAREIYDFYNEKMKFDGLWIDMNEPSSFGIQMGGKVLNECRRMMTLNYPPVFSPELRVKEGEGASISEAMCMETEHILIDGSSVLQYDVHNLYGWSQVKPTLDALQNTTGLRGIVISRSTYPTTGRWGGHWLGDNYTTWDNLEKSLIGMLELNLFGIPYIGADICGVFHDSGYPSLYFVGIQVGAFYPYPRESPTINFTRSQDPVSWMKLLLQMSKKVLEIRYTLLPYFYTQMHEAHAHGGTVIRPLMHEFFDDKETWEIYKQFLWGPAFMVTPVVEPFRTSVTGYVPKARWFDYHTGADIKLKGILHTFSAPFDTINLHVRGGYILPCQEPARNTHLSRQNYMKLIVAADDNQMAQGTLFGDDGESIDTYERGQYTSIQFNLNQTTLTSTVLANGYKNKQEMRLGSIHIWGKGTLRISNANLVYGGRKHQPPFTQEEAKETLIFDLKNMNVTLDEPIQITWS

## OC[C@@H]1[C@@H](O)[C@H](O)C[S@@+]1C[C@@H](O)[C@@H](O)[C@H](O)[C@@H](O)CO [neoponkoranol]
[1]
  IC50: 7.3 ± 1.5 µM
[2]
  IC50: 2.8 ± 0.5 µM
[3]; 1.0 mpk
  Declined Rate of Blood Glucose Levels, 15 min: 33.5%
  Declined Rate of Blood Glucose Levels, 30 min: 36.4%
  Declined Rate of Blood Glucose Levels, 60 min: 27.1%
  Declined Rate of AUC: 27.1%
[3]; 10.0 mpk
  Declined Rate of Blood Glucose Levels, 15 min: 42.8%
  Declined Rate of Blood Glucose Levels, 30 min: 49.5%
  Declined Rate of Blood Glucose Levels, 60 min: 43.5%
  Declined Rate of AUC: 39.4%
[4]; 15 min
  Declined Rate of Blood Glucose Levels, 15 min: 42.3%
[4]; 30 min
  Declined Rate of Blood Glucose Levels, 30 min: 33.9%
[4]; 60 min
  Declined Rate of Blood Glucose Levels, 60 min: 19.4%
[4]; AUC
  Declined Rate of AUC: 21.5%
[5]
  IC50: 6.9 µM
[6]
  IC50: 2.3 µM
